Results from the NIST ThermoML archive (doi:10.1016/j.fluid.2011.03.031).
Numbers after ± are expanded uncertainties.

Assay: wn = mass fraction of the nth substance listed
Details: 101 kPa, Liquid, w1 = 0.321; for electrical conductivity: Phywe conductometer; for mass density: Vibrating tube method

CCN(CC)CC [triethylamine] + O
electrical conductivity (284.65 K): 0.04696 ± 0.00011 S/m
mass density (284.65 K): 935.6 ± 0.4 kg/m3
electrical conductivity (285.14 K): 0.04816 ± 0.0001 S/m
mass density (285.14 K): 935.2 ± 0.4 kg/m3
electrical conductivity (285.64 K): 0.04926 ± 0.0001 S/m
mass density (285.64 K): 934.7 ± 0.4 kg/m3
electrical conductivity (286.14 K): 0.05046 ± 0.0001 S/m
mass density (286.14 K): 934.2 ± 0.4 kg/m3
electrical conductivity (286.65 K): 0.05156 ± 0.0001 S/m
mass density (286.65 K): 933.7 ± 0.4 kg/m3
electrical conductivity (287.14 K): 0.05276 ± 0.0001 S/m
mass density (287.14 K): 933.1 ± 0.4 kg/m3
electrical conductivity (287.65 K): 0.05396 ± 0.0001 S/m
mass density (287.65 K): 932.5 ± 0.4 kg/m3
electrical conductivity (288.09 K): 0.05496 ± 0.0001 S/m
mass density (288.09 K): 932 ± 0.4 kg/m3
electrical conductivity (288.59 K): 0.05616 ± 0.0001 S/m
mass density (288.59 K): 931.4 ± 0.4 kg/m3
electrical conductivity (288.89 K): 0.05676 ± 0.0001 S/m
mass density (288.89 K): 931 ± 0.4 kg/m3
electrical conductivity (289.14 K): 0.05736 ± 0.00011 S/m
mass density (289.14 K): 930.7 ± 0.4 kg/m3
electrical conductivity (289.42 K): 0.05806 ± 0.0001 S/m
mass density (289.42 K): 930.3 ± 0.4 kg/m3
electrical conductivity (289.65 K): 0.05856 ± 0.0001 S/m
mass density (289.65 K): 930 ± 0.4 kg/m3
electrical conductivity (289.91 K): 0.05916 ± 0.0001 S/m
mass density (289.91 K): 929.6 ± 0.4 kg/m3
electrical conductivity (290.15 K): 0.05976 ± 0.00011 S/m
mass density (290.15 K): 929.3 ± 0.4 kg/m3
electrical conductivity (290.33 K): 0.06026 ± 0.00012 S/m
mass density (290.33 K): 929 ± 0.4 kg/m3
electrical conductivity (290.44 K): 0.06056 ± 0.0001 S/m
mass density (290.44 K): 928.9 ± 0.4 kg/m3
electrical conductivity (290.55 K): 0.06076 ± 0.0001 S/m
mass density (290.55 K): 928.7 ± 0.4 kg/m3
electrical conductivity (290.65 K): 0.06106 ± 0.00013 S/m
mass density (290.65 K): 928.6 ± 0.4 kg/m3
electrical conductivity (290.75 K): 0.06136 ± 0.00013 S/m
mass density (290.75 K): 928.4 ± 0.4 kg/m3
electrical conductivity (290.84 K): 0.06166 ± 0.00013 S/m
mass density (290.84 K): 928.3 ± 0.4 kg/m3
electrical conductivity (290.94 K): 0.06196 ± 0.00012 S/m
mass density (290.94 K): 928.2 ± 0.4 kg/m3
electrical conductivity (291.05 K): 0.06226 ± 0.00012 S/m
mass density (291.05 K): 928 ± 0.4 kg/m3
electrical conductivity (291.15 K): 0.06256 ± 0.00014 S/m
mass density (291.15 K): 927.8 ± 0.4 kg/m3
electrical conductivity (291.19 K): 0.06276 ± 0.00013 S/m
mass density (291.19 K): 927.8 ± 0.4 kg/m3
electrical conductivity (291.24 K): 0.06286 ± 0.00013 S/m
mass density (291.24 K): 927.7 ± 0.4 kg/m3
electrical conductivity (291.29 K): 0.06306 ± 0.00017 S/m
mass density (291.29 K): 927.6 ± 0.4 kg/m3
electrical conductivity (291.34 K): 0.06326 ± 0.00015 S/m
mass density (291.34 K): 927.5 ± 0.4 kg/m3
electrical conductivity (291.39 K): 0.06346 ± 0.00015 S/m
mass density (291.39 K): 927.5 ± 0.4 kg/m3
